Key:
Molt4 cells [1] = test: Mitochondrial membrane potential assay (JC-1); format: cell-based, Human; details: Molt4 cells, 0.1, 0.25 and 0.5 μM, 48 h
Description: Molt4 cells were seeded in 12 well plate (0.5×10^5 cells/ml), treated with different concentration of ASR6 for 48 h, (DMSO treated cells was used as vehicle control), washed with 1× phosphate buffered saline and stained with JC-1 dye (5,5′,6,6′-Tetrachloro-1,1′,3,3′-tetraethylbenzimidazolo carbocyanine iodide (0.5 μg/ml) (Calbiochem, USA) in 1 ml of media, incubated at 37° C. for 30 min. Samples were washed with phosphate buffered saline and finally resuspended the cell pellet in 300 μl of 1× phosphate buffered saline and acquired (FACSVerse™, BD Biosciences, USA) using Cell Quest Pro Software. Minimum of 10,000 cells were acquired per sample and 2, 4-Dinitrophenol (2, 4-DNP) used as positive control. Results were analyzed Flowing Software (Version 2.5) and data were presented.

Molt4 cells [2] = test: Cell cycle analysis (propidium iodide, flow cytometry); format: cell-based, Human; details: Molt4 cells, 0.01, 0.1, 0.25 and 0.5 μM, concentration dependent
Description: The DNA content analysis was performed by using Flow cytometer, Molt4 cells seeded (0.5×10^5 cells/ml) in 6 well plate and treated with different concentrations of ASR6 (0.01, 0.1, 0.25 and 0.5 μM) at 37° C. for 48 h. After incubation cells were harvested, processed and fixed in 80% chilled ethanol. Overnight treated with RNase-A (50 μg/ml) incubated at 37° C. Further cells stained with propidium iodide (5 μg/ml) and cell cycle progression was monitored using flow cytometer (FACSVerse™ BD Biosciences, USA). A minimum of 10000 cells were recorded. Results were analyzed using Flowing Software (Version 2.5) and plotted histograms.
In FIG. 2 A, B histograms representing different phases of cell cycle distribution of ASR6 (0.01, 0.1, 0.25 and 0.5 μM for 24 h and 48 h) treated Molt4 cells is shown.

Reh = test: Cytotoxicity (MTT / trypan blue) in Reh cells; format: cell-based; details: Homo sapiens, read-out: Cytotoxicity IC 50 in μM (Cell lines) Reh
Description: (§1) Human cancer cell lines, K562, MCF7, HeLa and HEK 293T were purchased from National Centre for Cell Science, Pune, India. Cells were grown in RPMI 1640/MEM/DMEM supplemented with 10% heat-inactivated fetal bovine serum (FBS), 100 U/mL of Penicillin, and 100 μg of streptomycin/mL and incubated at 37° C. in a humidified atmosphere containing 5% CO2.
(§2) Nalm6, Molt4 and Reh cells were provided by Dr. Sathees C. Raghavan, Department of Biochemistry, IISc, Bangalore. The cells were grown under the similar culture conditions as mentioned above.
(§3) The human T cell leukemia cell line Molt4, Human acute lymphoblastic leukemia (ALL) cell line Nalm6, Human acute myelocytic leukemia (AML) cell line Reh, chronic myelogenous leukemia (CML) cell line K562, Human breast adenocarcinoma cell lines like MCF7 and human kidney cell line HEK 293T (Human embryonic kidney cell line) were selected for the purpose of preliminary anticancer screening of newly synthesized compounds (ASR1 to ASR15). To check the cytotoxicity, trypan blue dye exclusion assays, MTT assay were employed as described earlier Further, Cell cycle analysis, Mitochondrial membrane potential, Annexin-V FITC staining assay were also performed in order to understand the mode of cell death after treatment with ASR6. Further, ASR6 was also tested for its ability to inhibit topoisomerase I and II activity in vitro.
(§4) Cytotoxic effect of the newly synthesized compounds against leukemic cells was assessed using 3-(4, 5-dimethyl-2-yl02, 5-diphenyl tetrazolium bromide (MTT) assay. After exposure of compound at different concentration (0.01, 0.1, 0.5, 1, 10, 50 and 100 μM) cells were harvested and transferred into 96 well plate, MTT (5 mg/ml) was added and incubate at 37° C. for 4 h and formazan crystals were dissolved by adding solubilizing agent (10% SDS and 50% dimethyl formamide) for 1 h, finally plate was read at 570 nm (Bio-Rad, USA). Results were represented as inhibition of percentage of cell proliferation in bar diagram (n=3) (FIGS. 1 A, C, E and G).
(§5) To determine the growth inhibitory activity of the drug, 0.5×10^5 cell/ml were plated in 24 well (Biofil, USA.) in 1 ml of complete medium and treated with various concentration of the compound to test, cells were stained with 0.4% trypan blue and counted on a hemocytometer after treatment with compounds at 48 and 72 h time point. Results were represented as number of viable cells/ml in bar diagram (FIGS. 1 B, D, F, and H) (n=3).

Nalm6 = test: Cytotoxicity (MTT / trypan blue) in Nalm6 cells; format: cell-based; details: Homo sapiens, NALM-6, read-out: Cytotoxicity IC 50 in μM (Cell lines) Nalm6
Description: as §1, §2, §3, §4, §5

MCF7 = test: Cytotoxicity in MCF7 cells; format: cell-based; details: Homo sapiens, read-out: Cytotoxicity IC 50 in μM (Cell lines) MCF7
Description: as §1, §3, §4, §5

Molt4 cells [3] = test: Annexin V-FITC/PI staining for apoptosis; format: cell-based, Human; details: 0.25 & 0.5 μM, 48 h
Description: To identify induction of apoptosis after treatment withASR6 in Molt4 cells, annexin V-FITC and propidium iodide staining was carried out. Briefly, Molt4 cells (0.5×10^5 cells per ml) were seeded in 24 well plate and treated with ASR6 (0.25 & 0.5 μM; 48 h). Cells were washed with 1× phosphate buffered saline and suspended in cell binding buffer, stained with Annexin V-FITC (0.2 mg/ml) and propidium iodide (0.05 mg/ml)(Santacruz, USA), and incubated in dark for 20 min at room temperature. Finally cells were subjected to FACS analysis (FACSVerse™BD Bioscience, USA) (10,000 cells were acquired). The results were analyzed in WinMDI 2.9 Software, bar diagram was plotted using at least two independent experiments with error bar.

K562 = test: Cytotoxicity (MTT / trypan blue) in K562 cells; format: cell-based; details: Homo sapiens, read-out: Cytotoxicity IC 50 in μM (Cell lines) K562
Description: as §1, §3, §4, §5

SMILES: CCOC(=O)c1[nH]c(-c2ccc(Cl)cc2)cc1-c1cccnc1 [ASR6, Ethyl 5-(4-chlorophenyl)-3-(pyridin-3-yl)-1H-pyrrole-2-carboxylate]
- Mitochondrial membrane potential (Molt4 cells [1]): reduction in mitochondrial membrane potential
- Cell cycle progression at 24 h (Molt4 cells [2]; 24 h): G2/M arrest
- Cell cycle progression at 48 h (Molt4 cells [2]; 48 h): SubG1 phase (apoptosis)
- IC50 (Reh): 0.36 µM
- IC50 (Nalm6): 0.344 µM
- IC50 (MCF7): 0.884 µM
- Apoptotic cell population (annexin V-FITC/PI) (Molt4 cells [3]): significant increase in apoptotic cell population
- IC50 (K562): 0.512 µM

Reference: US20180251425A1, “2,3,5 TRISUBSTITUTED PYRROLE DERIVATIVES AS TOPOISOMERASE INHIBITORS AND THERAPEUTIC USES THEREOF” (UNIVERSITY OF MYSORE, priority 2015, published 2018)
